Data: patent US4178449A, “Pyrazolo[1,5-a]pyrimidines and imidazo-[1,5-a]pyrimidines” (American Cyanamid Company, priority 1978, dated 1979)

Tests used:
[1] = tested on: pentylenetetrazole clonic seizures in rats; assay: protection from convulsions resulting from the administration of pentylenetetrazole; assay type: in vivo, rat; design: key: Active: The test compounds are considered active if they protect 50% or more of the rats from clonic seizures; settings: oral or intraperitoneal, single or graded doses, pentylenetetrazole 21 to 23 mg./kg. i.v. at 30 or 60 minutes
Description: The anti-anxiety properties of the novel compounds of the present invention have been established in a test which indicates anxiolytic activity by the measure of protection from convulsions resulting from the administration of pentylenetetrazole. Single or graded dose levels of the test compounds were administered orally or intraperitoneally in a 2% starch vehicle, to groups of at least 4 rats. At 30 or 60 minutes, the rats were treated intravenously with pentylenetetrazole at a dose of 21 to 23 mg./kg. of body weight. This dose is estimated to cause clonic seizures in 99% of unprotected rats. The test compounds are considered active if they protect 50% or more of the rats from clonic seizures. It has been reported [R. T. Hill and D. H. Tedeschi, "Animal Testing and Screening Procedures in Evaluating Psychotropic Drugs" in "An Introduction to Psychopharmacology", Eds. R. R. Rech and K. E. Moore, Raven Press, New York, pp. 237-288 (1971)] that there is a high degree of correlation between antagonism of pentylenetetrazole seizures in rats and anti-anxietyeffects in higher warm-blooded animals.

[2] = tested on: 3H-diazepam binding to the brain receptors (rat frontal cortex P2-synaptosomal fraction); assay: inhibition of 3H-diazepam binding to brain receptors; design: key: Active: A compound which exhibits the ability to inhibit binding by ≥20% is considered to be active; settings: 3H-diazepam (1.5 mM.), 20 minutes in ice
Description: Another test used to measure anxiolytic activity comprises measurement of the ability of test compounds to inhibit the binding of ^3 H-diazepam to the brain receptors of warm-blooded animals. The test is described by R. F. Squires in Nature, 266, No. 21 page 732 (April 1977) and H. Mohler and T. Okada, Science, 198, 849 (1977). A modification of this test was employed wherein the animals used were male albino rats of the Wistar strain, weighing 150-200 g. each from Royalhart Farms. Diazepam (methyl-^3 H) was obtained from New England Nuclear. The test compounds were solubilized in either dimethylformamide, acetic acid, ethanol or hydrochloric acid. Frontal cortex of rats was homogenized gently in 20 volumes of ice-cold 0.32 M. sucrose, centrifuged twice at 1000 g. for 10 minutes and then recentrifuged at 30,000 g. for 20 minutes to produce a crude P2 -synaptosomal fraction. The P2 -fraction was resuspended, twice the original volume, in hypotonic 50 mM. Tris.HCl (pH 7.4). The binding assay consisted of 300 μl. of the P2 -fraction suspension (0.350 mg.), 100 μl. of test drug and 100 μl. of ^3 H-diazepam ([…].),. which was added to 1.5 ml. of 50 mM. Tris.HCl (pH 7.4). Non-specific binding controls and total binding controls received 100 μl. of diazepam (3 μm.) and 100 μl. of deionized water, respectively, in place of the test compound. Incubation for 20 minutes proceeded in ice and was terminated by filtration, under vacuum, through Whatman GF/C glass fiber filters. The filters were washed twice with 5 ml. of ice-cold 50 mM. Tris.HCl (pH 7.4) and placed in scintillation vials. After drying at 50°-60° C. for 30 minutes, 10 ml. of Beckman Ready-Solve HP was added and the radioactivity determined in a Beckman Scintillation Counter. The percentage of inhibition of diazepam binding is calculated for each compound. […] Representative compounds of the present invention which were active when tested by the diazepam binding assay are set forth in Table III below.

[3] = tested on: conflict situation (shocks taken) in Wistar strain rats; assay: non-conditioned passive avoidance (conflict) procedure; assay type: in vivo, rat; design: key: Active: The test compounds are considered active if the shocks received by the test group are significantly different from the control group by the Mann-Whitney U test; settings: oral or intraperitoneal, single or graded doses, tested at 30 or 60 minutes, 5 minute interval
Description: Another test which has been used to assess anti-anxiety effect is a non-conditioned passive avoidance procedure described by J. R. Vogel, B. Beer and D. E. Clody, "A Simple and Reliable Conflict Procedure for Testing Anti-Anxiety Agents", Psychopharmacologia, 21, 1-7 (1971). A conflict situation is induced in rats by a modification of this method. Groups of 6 naive, Wistar strain rats, weighing 200-240 g. each were deprived of water for 48 hours and food for 24 hours. The test compounds were administered in single or graded, oral or intraperitoneal doses suspended in a 2% starch vehicle containing 0.5% v/v polyethylene glycol and one drop of Polysorbate 80. Control animals received the vehicle alone. At 30 or 60 minutes each rat was placed in individual black plexiglass chambers. A 10% dextrose solution was available ad libitum from a tap located in the rear of the chamber. A 0.3 milliampere constant current 60 Hz pulsed DC shocking current was established between the stainless steel grid floor and the tap. After 20 seconds of non-shocked drinking, an alternating 5 second "shock-on" and 5 second "shock-off" cycle began and continued for a total of 5 minutes. The number of shocks taken by each rat during the 5 minute interval was recorded and compared to a control group. […]

COCc1cnn2c(-c3cccc(C(F)(F)F)c3)ccnc12 [Example 80, 3-(Methoxymethyl)-7-(α,α,α-trifluoro-m-tolyl)pyrazolo[1,5-a]-pyrimidine]
Result (protection from pentylenetetrazole clonic seizures) [1]: Active

COc1cccc(-c2ccnc3c(C#N)cnn23)c1 [Example 27, 7-(m-Methoxyphenyl)pyrazolo[1,5-a]pyrimidine-3-carbonitrile]
Result (protection from pentylenetetrazole clonic seizures) [1]: Active | Result (inhibition of 3H-diazepam binding) [2]: Active

FC(F)(F)c1cccc(-c2ccn3nccc3n2)c1 [Example 66, 5-(α,α,α-Trifluoro-m-tolyl)pyrazolo[1,5-a]pyrimidine]
Result (protection from pentylenetetrazole clonic seizures) [1]: Active

N#Cc1cnn2c(-c3ccccc3C(F)(F)F)ccnc12 [Example 21, 7-(α,α,α-Trifluoro-o-tolyl)pyrazolo[1,5-a]pyrimidine-3-carbonitrile]
Result (number of shocks taken vs control, conflict procedure) [3]: Active

Cc1nn2c(-c3cccc(C(F)(F)F)c3)ccnc2c1C#N [Example 11, 2-Methyl-7-(α,α,α-trifluoro-m-tolyl)pyrazolo[1,5-a]pyrimidine-3-carbonitrile]
Result (protection from pentylenetetrazole clonic seizures) [1]: Active | Result (inhibition of 3H-diazepam binding) [2]: Active | Result (number of shocks taken vs control, conflict procedure) [3]: Active

Cc1cnc2c(C#N)cnn2c1-c1cccc(C(F)(F)F)c1 [Example 23, 6-Methyl-7-(α,α,α-trifluoro-m-tolyl)pyrazolo-[1,5-a]pyrimidine-3-carbonitrile]
Result (protection from pentylenetetrazole clonic seizures) [1]: Active | Result (inhibition of 3H-diazepam binding) [2]: Active

CCOC(=O)c1cnn2c(-c3cccc(C(F)(F)F)c3)ccnc12 [Example 16, 7-(α,α,α-Trifluoro-m-tolyl)pyrazolo[1,5-a]pyrimidine-3-carboxylic acid ethyl ester]
Result (protection from pentylenetetrazole clonic seizures) [1]: Active | Result (inhibition of 3H-diazepam binding) [2]: Active | Result (number of shocks taken vs control, conflict procedure) [3]: Active

FC(F)(F)c1cccc(-c2ccnc3c(Cl)cnn23)c1 [Example 14, 3-Chloro-7-(α,α,α-trifluoro-m-tolyl)pyrazolo[1,5-a]pyrimidine]
Result (protection from pentylenetetrazole clonic seizures) [1]: Active | Result (inhibition of 3H-diazepam binding) [2]: Active

Cc1cnc2c(Cl)cnn2c1-c1cccc(C(F)(F)F)c1 [Example 25, 3-Chloro-6-methyl-7-(α,α,α-trifluoro-m-tolyl)pyrazolo[1,5-a]pyrimidine]
Result (inhibition of 3H-diazepam binding) [2]: Active | Result (number of shocks taken vs control, conflict procedure) [3]: Active

Cc1cnc2ccnn2c1-c1cccc(C(F)(F)F)c1 [Example 24, 6-Methyl-7-(α,α,α-trifluoro-m-tolyl)pyrazolo[1,5-a]pyrimidine]
Result (inhibition of 3H-diazepam binding) [2]: Active | Result (number of shocks taken vs control, conflict procedure) [3]: Active

N#Cc1ncn2c(-c3cccc(C(F)(F)F)c3)ccnc12 [Example 29, 4-(α,α,α-Trifluoro-m-tolyl)imidazo[1,5-a]pyrimidine-8-carbonitrile]
Result (protection from pentylenetetrazole clonic seizures) [1]: Active | Result (inhibition of 3H-diazepam binding) [2]: Active | Result (number of shocks taken vs control, conflict procedure) [3]: Active

c1ccc(-c2ccn3nccc3n2)cc1 [Example 67, 5-Phenylpyrazolo[1,5-a]pyrimidine]
Result (protection from pentylenetetrazole clonic seizures) [1]: Active

CCOC(=O)c1cnn2c(-c3ccc(CC)cc3)ccnc12 [Example 61, Ethyl 7-(p-ethylphenyl)pyrazolo[1,5-a]pyrimidine-3-carboxylate]
Result (protection from pentylenetetrazole clonic seizures) [1]: Active

ON=Cc1cnn2c(-c3cccc(C(F)(F)F)c3)ccnc12 [Example 49, 7-(α,α,α-Trifluoro-m-tolyl)pyrazolo[1,5-a]pyrimidine-3-carboxaldehyde, oxime]
Result (protection from pentylenetetrazole clonic seizures) [1]: Active

CN(C)CCOC(=O)c1cnn2c(-c3cccc(C(F)(F)F)c3)ccnc12 [Example 79, 2-Dimethylaminoethyl 7-(α,α,α-trifluoro-m-tolyl)pyrazolo[1,5-a]-pyrimidine-3-carboxylate]
Result (protection from pentylenetetrazole clonic seizures) [1]: Active

CCOC(=O)c1cnn2c(-c3cccc(C)c3)ccnc12 [Example 77, Ethyl 7-(m-tolyl)pyrazolo[1,5-a]pyrimidine-3-carboxylate]
Result (protection from pentylenetetrazole clonic seizures) [1]: Active

N#Cc1c(C(N)=O)nn2c(-c3cccc(C(F)(F)F)c3)ccnc12 [Example 19, 3-Cyano-7-(α,α,α-trifluoro-m-tolyl)pyrazolo[1,5-a]pyrimidine-2-carboxamide]
Result (protection from pentylenetetrazole clonic seizures) [1]: Active | Result (inhibition of 3H-diazepam binding) [2]: Active

FC(F)(F)c1cccc(-c2ccnc3c(Br)cnn23)c1 [Example 15, 3-Bromo-7-(α,α,α-trifluoro-m-tolyl)pyrazolo[1,5-a]pyrimidine]
Result (protection from pentylenetetrazole clonic seizures) [1]: Active | Result (inhibition of 3H-diazepam binding) [2]: Active

CCOC(=O)c1cnn2c(-c3ccc(C)c(C)c3)ccnc12 [Example 63, Ethyl 7-(3,4-xylyl)pyrazolo[1,5-a]pyrimidine-3-carboxylate]
Result (protection from pentylenetetrazole clonic seizures) [1]: Active

N#Cc1cnn2c(-c3cccc(F)c3)ccnc12 [Example 76, 7-(m-Fluorophenyl)pyrazolo[1,5-a]pyrimidine-3-carbonitrile]
Result (protection from pentylenetetrazole clonic seizures) [1]: Active

CC(=O)c1cnn2c(-c3cccc(C(F)(F)F)c3)ccnc12 [Example 54, Methyl 7-(α,α,α-trifluoro-m-tolyl)pyrazolo[1,5-a]pyrimid-3-yl ketone]
Result (protection from pentylenetetrazole clonic seizures) [1]: Active

N#Cc1cnn2c(-c3cccc(C(F)(F)F)c3)ccnc12 [Example 3, 7-(α,α,α-Trifluoro-m-tolyl)pyrazolo[1,5-a]pyrimidine-3-carbonitrile]
Result (protection from pentylenetetrazole clonic seizures) [1]: Active | Result (inhibition of 3H-diazepam binding) [2]: Active | Result (number of shocks taken vs control, conflict procedure) [3]: Active

FC(F)(F)c1cccc(-c2ccnc3ccnn23)c1 [Example 12, 7-(α,α,α-Trifluoro-m-tolyl)pyrazolo[1,5-a]pyrimidine]
Result (protection from pentylenetetrazole clonic seizures) [1]: Active | Result (inhibition of 3H-diazepam binding) [2]: Active

CCOC(=O)c1ncn2c(-c3cccc(C(F)(F)F)c3)ccnc12 [Example 56, Ethyl 4-(α,α,α-trifluoro-m-tolyl)imidazolo[1,5-a]pyrimidine-8-carboxylate]
Result (protection from pentylenetetrazole clonic seizures) [1]: Active

CCOC(=O)c1cnn2c(-c3ccc(OC)c(OC)c3)ccnc12 [Example 59, Ethyl 7-(3,4-dimethoxyphenyl)pyrazolo[1,5-a]pyrimidine-3-carboxylate]
Result (protection from pentylenetetrazole clonic seizures) [1]: Active

c1ccc(-c2ccnc3ccnn23)cc1 [Example 1, 7-Phenylpyrazolo[1,5-a]pyrimidine]
Result (inhibition of 3H-diazepam binding) [2]: Active | Result (number of shocks taken vs control, conflict procedure) [3]: Active

O=Cc1cnn2c(-c3cccc(C(F)(F)F)c3)ccnc12 [Example 48, 7-(α,α,α-Trifluoro-m-tolyl)pyrazolo[1,5-a]pyrimidine-3-carboxaldehyde]
Result (protection from pentylenetetrazole clonic seizures) [1]: Active
